Results as given in patent publication US12258355B2, “Probes for imaging huntingtin protein” (CHDI Foundation, Inc., priority 2014, dated 2025).
pIC50: −log10 of the molar value.

Target: T1, Q46 protein aggregates (Homo sapiens, UniProt P42858)
T1 construct: fused on or other part: GST at the N-terminus, cut off with thrombin before the test to start aggregation; The wells held aggregated Q46 without GST
Test: Q46 radioligand binding assay (RBA)
Settings: 10 nM ligand [3H3]MK-3328
Method: Q46 Radioligand Binding Assay
For radioligand binding assays (RBA) GST-Q46 protein was generated based on a previous publication (Scherzinger et al. Cell, Vol. 90, 549-558, Aug. 8, 1997). For experiments 33 μM GST-Q46 was incubated with 150 μg/mL thrombin in assay buffer (150 mM NaCl, 50 mM Tris pH 8.0) and 2 mM CaCl2 for 16 hours at 37° C. Aggregated Q46 was pelleted by centrifugation for 5 minutes at 13,000 rpm in a bench top centrifuge and re-dissolved in the same volume of assay buffer. Test compounds were prepared by titration in DMSO at 11 concentrations from 33 μM to 1 nM. For the RBA, Q46 protein aggregates and test compounds were pre-incubated in assay buffer for 20 minutes at room temperature, in 140 μL/well in a 96-well plate (pp, round bottom). Then, ligand was added in 10 μL/well and incubated for 60 minutes at 37° C. Final assay concentrations were 1 μM to 30 pM test compound, 5 μM Q46 protein (equivalent monomer concentration) and 10 nM ligand [^3H3]MK-3328 (Harrision et al., ACS Med. Chem. Lett., 2 (2011), pp 498-502). Samples were transferred onto GF/B filter plates and washed 2× with 200 μL PBS using a Filtermate Harvester. After drying filter plates for 1 hour at 37° C., the back of the plates were sealed with foil and 30 μL/well scintillation fluid (Packard MicroScint 40) added, incubated for 15 minutes in the dark and counted in a TopCount reader. For analysis, replicate data from independent assay plates were normalized towards 0% and 100% inhibition using control wells of vehicle (0% inhibition) and 3 μM unlabelled MK-3328 (100% inhibition). IC50 values were determined with a sigmoidal inhibition model with four variables (top, bottom, slope, IC50) in a global fit using the normalized replicate data.

T1 sequence (P42858 with tags, fused parts or gaps with the stated changes, form open): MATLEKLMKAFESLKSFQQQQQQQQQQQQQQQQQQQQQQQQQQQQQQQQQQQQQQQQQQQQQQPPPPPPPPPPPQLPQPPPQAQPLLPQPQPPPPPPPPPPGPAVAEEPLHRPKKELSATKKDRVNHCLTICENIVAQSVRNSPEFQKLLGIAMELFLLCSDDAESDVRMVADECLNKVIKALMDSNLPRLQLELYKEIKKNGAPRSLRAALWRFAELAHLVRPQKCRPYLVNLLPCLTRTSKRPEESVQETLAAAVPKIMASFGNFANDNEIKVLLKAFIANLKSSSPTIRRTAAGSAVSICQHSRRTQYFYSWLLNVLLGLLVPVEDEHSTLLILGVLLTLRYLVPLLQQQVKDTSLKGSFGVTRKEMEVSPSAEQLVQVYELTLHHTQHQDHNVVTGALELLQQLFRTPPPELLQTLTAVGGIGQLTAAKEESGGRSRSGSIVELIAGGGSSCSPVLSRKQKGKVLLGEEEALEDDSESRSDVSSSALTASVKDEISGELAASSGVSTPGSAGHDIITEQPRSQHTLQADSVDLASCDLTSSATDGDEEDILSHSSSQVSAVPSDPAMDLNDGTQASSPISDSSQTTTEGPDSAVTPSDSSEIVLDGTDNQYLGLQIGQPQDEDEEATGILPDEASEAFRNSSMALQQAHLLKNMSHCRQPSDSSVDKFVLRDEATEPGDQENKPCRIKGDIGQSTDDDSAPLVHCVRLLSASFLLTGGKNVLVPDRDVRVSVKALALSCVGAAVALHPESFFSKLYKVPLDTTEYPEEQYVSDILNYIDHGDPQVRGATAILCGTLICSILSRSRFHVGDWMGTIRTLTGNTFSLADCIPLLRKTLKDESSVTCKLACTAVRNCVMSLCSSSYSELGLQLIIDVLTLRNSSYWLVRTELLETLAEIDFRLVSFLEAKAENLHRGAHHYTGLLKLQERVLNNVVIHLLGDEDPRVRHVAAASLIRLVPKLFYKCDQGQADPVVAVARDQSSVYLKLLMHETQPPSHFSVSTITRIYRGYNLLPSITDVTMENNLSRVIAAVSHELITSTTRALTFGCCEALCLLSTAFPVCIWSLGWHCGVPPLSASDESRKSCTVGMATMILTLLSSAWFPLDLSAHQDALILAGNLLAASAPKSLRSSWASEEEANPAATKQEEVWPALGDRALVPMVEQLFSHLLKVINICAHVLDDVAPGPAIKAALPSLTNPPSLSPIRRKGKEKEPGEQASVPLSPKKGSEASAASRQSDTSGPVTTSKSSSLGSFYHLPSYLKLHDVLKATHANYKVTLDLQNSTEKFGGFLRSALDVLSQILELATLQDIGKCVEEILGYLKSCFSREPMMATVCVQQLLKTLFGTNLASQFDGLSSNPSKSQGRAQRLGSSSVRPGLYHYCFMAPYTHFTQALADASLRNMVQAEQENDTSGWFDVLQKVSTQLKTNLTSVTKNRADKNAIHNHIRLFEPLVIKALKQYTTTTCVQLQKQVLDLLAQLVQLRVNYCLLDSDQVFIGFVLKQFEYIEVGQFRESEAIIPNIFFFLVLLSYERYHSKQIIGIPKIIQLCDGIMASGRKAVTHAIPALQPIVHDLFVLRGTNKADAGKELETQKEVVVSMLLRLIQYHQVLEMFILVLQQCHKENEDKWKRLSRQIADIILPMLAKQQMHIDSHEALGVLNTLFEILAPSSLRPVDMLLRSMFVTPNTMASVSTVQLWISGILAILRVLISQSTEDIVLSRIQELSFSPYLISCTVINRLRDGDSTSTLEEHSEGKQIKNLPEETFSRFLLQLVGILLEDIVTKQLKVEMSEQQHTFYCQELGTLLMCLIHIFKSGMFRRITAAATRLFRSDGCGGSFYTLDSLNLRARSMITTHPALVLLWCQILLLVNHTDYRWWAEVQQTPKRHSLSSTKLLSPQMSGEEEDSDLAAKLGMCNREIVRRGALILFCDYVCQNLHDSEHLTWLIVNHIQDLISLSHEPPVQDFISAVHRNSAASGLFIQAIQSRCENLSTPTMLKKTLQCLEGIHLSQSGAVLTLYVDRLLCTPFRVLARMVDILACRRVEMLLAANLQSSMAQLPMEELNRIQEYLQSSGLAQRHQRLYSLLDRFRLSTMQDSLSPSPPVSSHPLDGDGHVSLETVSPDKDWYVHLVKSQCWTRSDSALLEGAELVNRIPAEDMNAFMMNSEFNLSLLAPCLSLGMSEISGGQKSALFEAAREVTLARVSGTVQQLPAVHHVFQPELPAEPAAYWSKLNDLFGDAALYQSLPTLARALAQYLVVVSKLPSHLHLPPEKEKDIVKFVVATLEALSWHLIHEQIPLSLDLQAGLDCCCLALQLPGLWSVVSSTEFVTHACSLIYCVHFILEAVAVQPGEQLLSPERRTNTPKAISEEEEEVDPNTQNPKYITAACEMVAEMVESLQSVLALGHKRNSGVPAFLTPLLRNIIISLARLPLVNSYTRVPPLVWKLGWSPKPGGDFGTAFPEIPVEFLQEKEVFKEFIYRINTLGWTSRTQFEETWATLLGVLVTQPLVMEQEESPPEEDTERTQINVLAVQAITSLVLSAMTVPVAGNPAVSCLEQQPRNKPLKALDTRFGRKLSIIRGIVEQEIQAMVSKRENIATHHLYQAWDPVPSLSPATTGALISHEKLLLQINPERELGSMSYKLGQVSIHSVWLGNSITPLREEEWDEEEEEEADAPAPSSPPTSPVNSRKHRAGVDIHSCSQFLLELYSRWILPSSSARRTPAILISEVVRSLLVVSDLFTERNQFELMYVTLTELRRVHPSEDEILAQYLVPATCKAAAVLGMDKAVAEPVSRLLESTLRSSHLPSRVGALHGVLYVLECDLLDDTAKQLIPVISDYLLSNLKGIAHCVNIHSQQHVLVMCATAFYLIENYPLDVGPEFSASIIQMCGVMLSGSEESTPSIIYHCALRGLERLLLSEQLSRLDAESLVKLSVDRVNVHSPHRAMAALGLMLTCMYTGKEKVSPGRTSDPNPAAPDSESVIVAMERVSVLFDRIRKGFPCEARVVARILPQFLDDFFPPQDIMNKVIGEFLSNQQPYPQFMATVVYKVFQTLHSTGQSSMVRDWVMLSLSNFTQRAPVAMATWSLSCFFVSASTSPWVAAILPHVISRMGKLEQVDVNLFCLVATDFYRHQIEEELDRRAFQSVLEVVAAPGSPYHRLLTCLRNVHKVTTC

Row | pIC50 | Structure (SMILES)
1 | 6.30 to 7.00 | COc1ccc(NCc2ccc3oc(-c4cccnc4)nc3c2)nc1 [5-methoxy-N-{[2-(pyridin-3-yl)-1,3-benzoxazol-5-yl]methyl}pyridin-2-amine]
2 | > 7.00 | COc1ccc(COc2ccc3oc(N4CCn5ccnc5C4)nc3c2)nc1 [2-{5H,6H,7H,8H-imidazo[1,2-a]pyrazin-7-yl}-5-[(5-methoxypyridin-2-yl)methoxy]-1,3-benzoxazole]
3 | > 7.00 | COc1ccc(COc2ccc3oc(-c4ccc(=O)n(C)c4)nc3c2)nc1 [5-{5-[(5-methoxypyridin-2-yl)methoxy]-1,3-benzoxazol-2-yl}-1-methyl-1,2-dihydropyridin-2-one]
4 | 6.30 to 7.00 | COc1ccc2c(c1)CCN(c1ccc3oc(-c4cccnc4)nc3c1)C2=O [6-methoxy-2-[2-(pyridin-3-yl)-1,3-benzoxazol-5-yl]-1,2,3,4-tetrahydroisoquinolin-1-one]
5 | > 7.00 | COc1cnc(N2CCN(c3ccc4oc(-c5cccnc5)nc4c3)CC2)nc1 [5-[4-(5-methoxypyrimidin-2-yl)piperazin-1-yl]-2-(pyridin-3-yl)-1,3-benzoxazole]
6 | > 7.00 | N#Cc1cnccc1-c1cc2cc(OCc3cncnc3)ccc2o1 [4-[5-(pyrimidin-5-ylmethoxy)-1-benzofuran-2-yl]pyridine-3-carbonitrile]
7 | 6.30 to 7.00 | COc1ccc(COc2cnc3oc(-c4ccc[n+]([O-])c4)nc3c2)[n+]([O-])c1 [3-{6-[(5-methoxy-1-oxidopyridin-1-ium-2-yl)methoxy]-[1,3]oxazolo[5,4-b]pyridin-2-yl}pyridin-1-ium-1-olate]
8 | > 7.00 | COc1ccc(C(=O)Nc2ccc3oc(-c4ccncc4)nc3c2)cc1 [4-methoxy-N-[2-(pyridin-4-yl)-1,3-benzoxazol-5-yl]benzamide]
9 | > 7.00 | COc1cnc(C(=O)Nc2ccc3oc(-c4cccc(C)c4)nc3c2)cn1 [5-methoxy-N-[2-(3-methylphenyl)-1,3-benzoxazol-5-yl]pyrazine-2-carboxamide]
10 | > 7.00 | COc1ccc(COc2ccc3oc(-c4ccncc4C#N)cc3c2)nc1 [4-{5-[(5-methoxypyridin-2-yl)methoxy]-1-benzofuran-2-yl}pyridine-3-carbonitrile]
11 | > 7.00 | COc1ccc(COc2ccc3oc(-c4ccc[n+]([O-])c4)nc3c2)nc1 [3-{5-[(5-methoxypyridin-2-yl)methoxy]-1,3-benzoxazol-2-yl}pyridin-1-ium-1-olate]
12 | > 7.00 | c1cncc(COc2ccc3oc(-c4cccnc4)nc3c2)c1 [2-(pyridin-3-yl)-5-(pyridin-3-ylmethoxy)-1,3-benzoxazole]
13 | > 7.00 | COc1ccc(COc2ccc3oc(-c4ccncc4)cc3c2)nc1 [4-{5-[(5-methoxypyridin-2-yl)methoxy]-1-benzofuran-2-yl}pyridine]
14 | 6.30 to 7.00 | OC(Cc1ccc2oc(-c3cccnc3)nc2c1)c1ccccn1 (stereo not drawn) [1-(pyridin-2-yl)-2-[2-(pyridin-3-yl)-1,3-benzoxazol-5-yl]ethan-1-ol]
15 | > 7.00 | COc1ccc(C(=O)Nc2ccc3oc(-c4cccnc4)nc3c2)cc1 [4-methoxy-N-[2-(pyridin-3-yl)-1,3-benzoxazol-5-yl]benzamide]
16 | > 7.00 | COc1ccc(COc2cnc3oc(-c4cccnc4)nc3c2)nn1 [3-methoxy-6-({[2-(pyridin-3-yl)-[1,3]oxazolo[5,4-b]pyridin-6-yl]oxy}methyl)pyridazine]
17 | > 7.00 | N#Cc1cnccc1-c1cc2cc(OCc3cn[nH]c3)ccc2o1 [4-[5-(1H-pyrazol-4-ylmethoxy)-1-benzofuran-2-yl]pyridine-3-carbonitrile]
18 | > 7.00 | O=C(COc1ccccc1)Nc1ccc2oc(-c3cccnc3)nc2c1 [2-phenoxy-N-[2-(pyridin-3-yl)-1,3-benzoxazol-5-yl]acetamide]
19 | 6.30 to 7.00 | Cn1ccnc1COc1ccc2oc(-c3ccncc3C#N)cc2c1 [4-{5-[(1-methyl-1H-imidazol-2-yl)methoxy]-1-benzofuran-2-yl}pyridine-3-carbonitrile]
20 | 6.30 to 7.00 | COc1cnc(COc2ccc3c(c2)nc(-c2cccnc2)n3C)cn1 [5-[(5-methoxypyrazin-2-yl)methoxy]-1-methyl-2-(pyridin-3-yl)-1H-1,3-benzodiazole]
21 | 6.30 to 7.00 | Cn1cc(COc2ccc3oc(-c4cccnc4)nc3c2)cn1 [5-[(1-methyl-1H-pyrazol-4-yl)methoxy]-2-(pyridin-3-yl)-1,3-benzoxazole]

Row | pIC50 | Structure (SMILES)
22 | > 7.00 | c1cncc(-c2nc3cc(OCc4ccc(OCCN5CCOCC5)cn4)ccc3o2)c1 [5-({5-[2-(morpholin-4-yl)ethoxy]pyridin-2-yl}methoxy)-2-(pyridin-3-yl)-1,3-benzoxazole]
23 | > 7.00 | COc1ccc(COc2ccc3oc(-c4ccc(C(F)(F)F)nc4)nc3c2)nc1 [5-[(5-methoxypyridin-2-yl)methoxy]-2-[6-(trifluoromethyl)pyridin-3-yl]-1,3-benzoxazole]
24 | > 7.00 | CNC(=O)c1ccc(-c2nc3cc(OCc4ccc(OC)cn4)ccc3o2)cn1 [5-{5-[(5-methoxypyridin-2-yl)methoxy]-1,3-benzoxazol-2-yl}-N-methylpyridine-2-carboxamide]
25 | > 7.00 | O=C(Nc1ccc2oc(-c3cccnc3)nc2c1)c1ccc(C(F)(F)F)nc1 [N-[2-(pyridin-3-yl)-1,3-benzoxazol-5-yl]-6-(trifluoromethyl)pyridine-3-carboxamide]
26 | > 7.00 | Cc1cncc(Oc2ccc(C(=O)Nc3ccc4oc(-c5cccnc5)nc4c3)cc2)n1 [4-[(6-methylpyrazin-2-yl)oxy]-N-[2-(pyridin-3-yl)-1,3-benzoxazol-5-yl]benzamide]
27 | > 7.00 | COc1ccc(C(=O)Nc2ccc3oc(-c4cccnc4)nc3c2)nc1 [5-methoxy-N-[2-(pyridin-3-yl)-1,3-benzoxazol-5-yl]pyridine-2-carboxamide]
28 | > 7.00 | COc1ccc(COc2ccc3oc([C@@H]4Cc5ccccc5O4)nc3c2)nc1 [2-[(2S)-2,3-dihydro-1-benzofuran-2-yl]-5-[(5-methoxypyridin-2-yl)methoxy]-1,3-benzoxazole]
29 | 6.30 to 7.00 | Cn1cc(-c2nc3cc(OCc4cnccn4)cnc3o2)cn1 [2-({[2-(1-methyl-1H-pyrazol-4-yl)-[1,3]oxazolo[5,4-b]pyridin-6-yl]oxy}methyl)pyrazine]
30 | > 7.00 | O=C(Nc1ccc2oc(-c3cccnc3)nc2c1)C1Cc2ccccc2O1 (stereo not drawn) [N-[2-(pyridin-3-yl)-1,3-benzoxazol-5-yl]-2,3-dihydro-1-benzofuran-2-carboxamide]
31 | > 7.00 | COc1cnc(COc2ccc3oc(-c4cnn(C)c4)nc3c2)cn1 [5-[(5-methoxypyrazin-2-yl)methoxy]-2-(1-methyl-1H-pyrazol-4-yl)-1,3-benzoxazole]
32 | > 7.00 | COc1ccc(-c2nc3cc(NC(=O)c4cccc(OC)c4)ccc3o2)cc1 [3-methoxy-N-[2-(4-methoxyphenyl)-1,3-benzoxazol-5-yl]benzamide]
33 | > 7.00 | O=C(Nc1ccc2oc(-c3cccnc3)nc2c1)c1cccc(OCc2ccccc2)c1 [3-(benzyloxy)-N-[2-(pyridin-3-yl)-1,3-benzoxazol-5-yl]benzamide]
34 | > 7.00 | COc1ccc(COc2ccc3oc(-c4ccc(OC)cn4)nc3c2)nc1 [2-(5-methoxypyridin-2-yl)-5-[(5-methoxypyridin-2-yl)methoxy]-1,3-benzoxazole]
35 | 6.30 to 7.00 | Oc1cnc(-c2ccc3oc(-c4cccnc4)nc3c2)cn1 [5-[2-(pyridin-3-yl)-1,3-benzoxazol-5-yl]pyrazin-2-ol]
36 | > 7.00 | COc1ccc(COc2ccc3oc(-c4cncc(C)c4)nc3c2)nc1 [5-[(5-methoxypyridin-2-yl)methoxy]-2-(5-methylpyridin-3-yl)-1,3-benzoxazole]
37 | > 7.00 | COc1cnc2c(c1)CN(c1ccc3oc(-c4cccnc4)nc3c1)C2=O [3-methoxy-6-[2-(pyridin-3-yl)-1,3-benzoxazol-5-yl]-5H,6H,7H-pyrrolo[3,4-b]pyridin-7-one]
38 | 6.30 to 7.00 | COc1cccnc1C(=O)Nc1ccc2oc(-c3cccnc3)nc2c1 [3-methoxy-N-[2-(pyridin-3-yl)-1,3-benzoxazol-5-yl]pyridine-2-carboxamide]
39 | > 7.00 | COc1ccc(COc2ccc3oc(N4Cc5cccnc5C4)nc3c2)nc1 [5-[(5-methoxypyridin-2-yl)methoxy]-2-{5H,6H,7H-pyrrolo[3,4-b]pyridin-6-yl}-1,3-benzoxazole]
40 | 6.30 to 7.00 | Cn1cc(-c2ccc3oc(-c4cccnc4)nc3c2)cn1 [5-(1-methyl-1H-pyrazol-4-yl)-2-(pyridin-3-yl)-1,3-benzoxazole]
41 | > 7.00 | COc1ccc(COc2cnc3oc(-c4cccnc4)nc3c2)[n+]([O-])c1 [5-methoxy-2-({[2-(pyridin-3-yl)-[1,3]oxazolo[5,4-b]pyridin-6-yl]oxy}methyl)pyridin-1-ium-1-olate]
42 | > 7.00 | COc1ccc(COc2ccc3oc(-c4ccc(=O)n(C)n4)nc3c2)nc1 [6-{5-[(5-methoxypyridin-2-yl)methoxy]-1,3-benzoxazol-2-yl}-2-methyl-2,3-dihydropyridazin-3-one]
